B1: CXCL11: an ACKR3 and CXCR3 agonist (protein, UniProt O14625 22-94, looked up)
C-X-C motif chemokine 11: FPMFKRGRCLCIGPGVKAVKVADIEKASIMYPSNNCDKIEVIITLKENKGQRCLNPKSKQARLIIKKVERKNF

Legend:
hPPAEC [1] = test: In vitro vascular permeability assay (FITC-dextran), hPPAEC monolayer, CXCR4/ACKR3 ligands without thrombin; type: cell-based, human; conditions: 50 nM ligand for 10 min, then FITC-dextran; no thrombin
Description: FIGS. 1A-1B show expression of CXCR4, ACKR3 and CXCR4:ACKR3 heteromers on hPPAEC and effects of CXCR4/ACKR3 ligands on hPPAEC monolayer permeability. (A) Detection of CXCR4, ACKR3 and CXCR4:ACKR3 heteromers on hPPAEC by PLA. Typical PLA images for the detection of individual receptors and CXCR4:ACKR3 heteromers. Images show merged PLA/40,6-diamidino-2-phenylindole dihydrochloride (DAPI) signals. Ctrl: Omission of one secondary antibody. (B) hPPAEC were grown to a confluent monolayer on collagen-coated permeable membranes. Cells were then exposed to vehicle or 50 nM of CXCR4/ACKR3 ligands for 10 minutes, as indicated, followed by the addition of FITC-dextran. Endothelial permeability was assessed by measuring the amount of FITC-dextran that permeated through the cell monolayer. N=3 in quadruplicate. No cells: 100% permeability, open squares. RFU: Relative fluorescence units. *: p<0.05 vs. vehicle (2-way ANOVA/Bonferroni's multiple comparison post hoc test).
Cells and cell lines—Human primary pulmonary artery endothelial cells (hPPAEC) (ATCC, PCS-100-022) and the human lung microvascular endothelial cell line HULEC-5a (ATCC, CRL-3244) were cultured in vascular cell basal medium (ATCC, PCS-100-030) with endothelial cell growth kit-VEGF (ATCC, PCS-100-041). The HTLA cell line, a HEK293 cell line stably expressing a tTA-dependent luciferase reporter and a β-arrestin2-TEV fusion gene, was generously provided by the laboratory of Dr. Bryan Roth and maintained in high glucose Dulbecco's Modified Eagle's Medium supplemented with 10% (vol/vol) FBS, 1× non-essential amino acids, 100 U/mL penicillin, 100 μg/mL streptomycin, 50 μg/mL hygromycin B, and 2 μg/mL puromycin. All cells were cultured at 37° C., 5% CO2 in a humidified atmosphere.
(§1) In vitro vascular permeability assays—Permeability assays were obtained from Millipore (ECM642) and performed as per manufacturer's instructions. In brief, 96-well collagen-coated permeability assay plates were pre-hydrated for 15 min, 5×10^5 cells were seeded on each well and grown to a confluent monolayer for 48 hours. Fluorescein isothiocyanate (FITC)-dextran (20 μg/mL) was then added on top of the monolayer and the amount of FITC-dextran that permeated through the monolayer was quantified by measuring fluorescence in a Synergy 2 Multi-mode Microplate Reader (BioTek, Winooski, Vt.) at various time points over a 255 min time period.

hPPAEC [2] = test: Effects of CXCR4 agonists / CXCL12 variants on thrombin-induced impairment of hPPAEC monolayer permeability; type: cell-based, human
Description: FIGS. 3A-3D show effects of CXCL12 and ubiquitin on thrombin-induced impairment of hPPAEC monolayer permeability. hPPAEC were grown to a confluent monolayer on collagen-coated permeable membranes. (A) hPPAEC were pre-treated with vehicle, 100 nM of CXCL12 or ubiquitin for 10 minutes, as indicated, and then exposed to thrombin (50 nM), followed by the addition of FITC-dextran. Vehicle: no thrombin. Endothelial permeability was assessed by measuring the amount of FITC-dextran that permeated through the cell monolayer. No cells: 100% permeability (open circles). RFU: Relative fluorescence units. N=3 in quadruplicate. *: p<0.05 vs. vehicle/thrombin. (B-D) hPPAEC were exposed to 35 nM of thrombin or vehicle. After 10 min, thrombin-exposed cells were treated with vehicle, CXCL12 (50 nM) and/or AMD3100 (10 μM) (B), with vehicle, ubiquitin (50 nM) and/or AMD3100 (10 μM) (C) or with various concentrations of ubiquitin (D) followed by the addition of FITC-dextran. The experimental conditions are indicated. Endothelial permeability was assessed by measuring the amount of FITC-dextran that permeated through the cell monolayer. RFU: Relative fluorescence units. N=3 in quadruplicate. *: p<0.05 vs. thrombin/vehicle (2-way ANOVA/Bonferroni's multiple comparison post hoc test).
FIGS. 7A-7D show dose-dependent effects of CXCL12α/β, CXCL12 (3-68) and CXCL12 mutants K27A/R41A/R47A, R47E and S-S4V on thrombin-induced impairment of hPPAEC monolayer permeability. hPPAEC cells were grown to a confluent monolayer on collagen-coated permeable membranes. hPPAEC were then exposed to 35 nM of thrombin. After 10 min, thrombin-exposed cells were treated with vehicle or 50 nM (A), 5 nM (B), 0.5 nM (C) or 0.05 nM (D) of the various proteins, as indicated. In (D) 5 nM CXCL12a was used as a positive control. N=3 in quadruplicate.
FIGS. 8A-8D show dose-dependent effects of CXCL12α, CXCL121 and CXCL122 on thrombin-induced impairment of hPPAEC monolayer permeability. hPPAEC cells were grown to a confluent monolayer on collagen-coated permeable membranes. hPPAEC were then exposed to 35 nM of thrombin. After 10 min, thrombin-exposed cells were treated with vehicle or 50 nM (A), 5 nM (B), 0.5 nM (C) or 0.05 nM (D) of the various proteins, as indicated. In (D) 5 nM CXCL12α was used as a positive control. N=3 in quadruplicate.
FIGS. 9A-9B show inhibition of thrombin-induced hyper-permeability of hPPAEC by CXCL12/CXCL12 variants. % inhibition: % inhibition of thrombin-induced hyperpermeability. Data from FIGS. 7 and 8 at t=255 min. N=3 in quadruplicate. *: p<0.05 vs. CXCL12a (2-way ANOVA/Bonferroni's multiple comparison post hoc test).
as §1

[3] = test system: animal model of acute respiratory distress syndrome (ARDS); test: Animal model of ARDS: lung ischemia reperfusion injury plus hemorrhage (P:F ratio, lung injury score); type: in vivo, Sprague-Dawley rats; conditions: for development of ARDS (P:F ratio): 0.14 μmol/kg i.v. within 10 min after reperfusion, until t=300 min; for histological signs of lung injury, injured lung (lung injury score): H&E sections, vs. vehicle
Description: Animals underwent 70 min of […] lung ischemia for 70 min plus hemorrhage to a MAP of 40 mmHg for the last 30 min of ischemia, followed by fluid resuscitation to a MAP of 60 mmHg until t=300 min. Arrow: drug injection. Dashed lines indicate the P:F ratio (mmHg) threshold values for the diagnosis of mild, moderate and severe ARDS. Vehicle: n=5. CXCL12: n=3. CXCL12: n=4. CXCL12-LM: n=3, CXCL12-LD: n=4. CXCL12 K27A/R41A/R47A: n=3. LI+HEM: lung ischemia reperfusion injury plus hemorrhage. Data are mean±SEM. *: p<0.05 vs. vehicle (2-way ANOVA/Dunnett's multiple comparisons test).
FIGS. 12A-12C show lung histology after treatment with CXCL12 and engineered CXCR4 agonists A. Lung specimens were placed in formalin fixative solution and were then embedded in paraffin wax, sliced into 5 μm sections and stained with H&E. Representative images from H&E stained lung sections from animals after vehicle (left) and CXCL12 ([…], right treatment. B/C. Lung injury scores (B. uninjured (left) lung; C. injured (right) lung). Data are median±interquartile ranges. Data were analyzed with the Kruskal Wallis test with Dunn's multiple comparisons test. The level of statistical significance (p) vs. ctrl. (vehicle treatment) indicated.
We tested therapeutic efficacy of wild-type CXCL12, CXXL12-locked dimer (LD), CXCL12-locked monomer (LM) and the triple mutant CXCL12 K27A/R41A/R47A in an animal model of acute respiratory distress syndrome (ARDS) (FIG. 11). All drugs were injected in a dose of 0.14 μmol/kg. Male Sprague-Dawley rats were anesthetized, orotracheally intubated, instrumented with arterial/venous catheters, and mechanically ventilated (PEEP 2 mmHg, FiO2 1.0). After a right lateral thoracotomy, a suture was tied around the hilum of the right lung. Animals underwent 70 min of right lung ischemia plus hemorrhage to a mean arterial blood pressure (MAP) of 40 mmHg for the last 30 min of lung ischemia. At t=70 min, the suture was removed, animals were ventilated with FiO2 1.0, PEEP 5 mmHg and resuscitated with crystalloids to a MAP of 60 mmHg until t=300 min. Vehicle and drugs were injected i.v. within 10 min after reperfusion.
We further evaluated histomorphology of the lungs from animals treated with vehicle, wild-type CXCL12, CXCL12-LD and CXCXL12-LM utilizing a standardized lung injury score. Lung slides stained with hematoxylin and eosin were examined under a light microscope by 4 investigators blinded to the identity of the specimens. The lung injury score was assessed as previously described/. In brief each investigator rendered a score of 0 (no damage) to 4+(maximal damage) based on an injury grading scale composed of six criteria. The slides were assessed for the extent of alveolar congestion, hemorrhage and edema, as well as alveolar and vessel wall PMN infiltration and alveolar wall thickness. […] Lung injury scores of the uninjured and injured lungs from animals treated with vehicle, wild-type CXCL12, CXCL12-LD and CXCXL12-LM are shown in FIGS. […], respectively.

CXCR4 = target: T1, CXCR4 (Homo sapiens, UniProt P61073); test: Presto-Tango β-arrestin 2 recruitment assay for CXCR4; type: cell-based
T1 construct: host or cells: HTLA cells (HEK293 line stably expressing a tTA-dependent luciferase reporter and a β-arrestin2-TEV fusion gene)
Description: FIGS. 6A-6F show Presto-Tango β-arrestin 2 recruitment assays for CXCR4 (A-C) and ACKR3 (D-F). RLU %: % of the luminescence signal for 1 μM CXCL12α. N=9 for CXCL12a and n=3 for all other proteins.
Presto-Tango β-arrestin 2 recruitment assay—The PRESTO-Tango (parallel receptorome expression and screening via transcriptional out-put, with transcriptional activation following arrestin translocation) assay was performed as recently described. The Tango plasmids were a gift from Dr. Bryan Roth (all from Addgene). HTLA cells (2.5×10^5/well) were seeded in a 6-well plate and transfected with 1.5 μg of the Tango plasmids using Lipofectamine 3000 (ThermoScientific). The following day, transfected HTLA cells (1×10^5 cells/well) were plated onto Poly-L-Lysine pre-coated 96-well micro-plates and allowed to attach to the plate surface for at least 4 hours prior to treatment. Proteins used for treatment were prepared in twice the final concentration in culture media, added at a 1:1 vol/vol ratio and incubated overnight at 37° C., 5% CO2 in a humidified environment. The following morning, media was removed from cell culture plates and replaced with a 100 μL 1:5 mixture of Bright-Glo (Promega) and 1×HBSS, 20 mM HEPES solution. Plates were then incubated at room temperature before measuring luminescence on a Biotek Synergy II plate reader.

T1 sequence (P61073 whole entry, the tested form may be a part): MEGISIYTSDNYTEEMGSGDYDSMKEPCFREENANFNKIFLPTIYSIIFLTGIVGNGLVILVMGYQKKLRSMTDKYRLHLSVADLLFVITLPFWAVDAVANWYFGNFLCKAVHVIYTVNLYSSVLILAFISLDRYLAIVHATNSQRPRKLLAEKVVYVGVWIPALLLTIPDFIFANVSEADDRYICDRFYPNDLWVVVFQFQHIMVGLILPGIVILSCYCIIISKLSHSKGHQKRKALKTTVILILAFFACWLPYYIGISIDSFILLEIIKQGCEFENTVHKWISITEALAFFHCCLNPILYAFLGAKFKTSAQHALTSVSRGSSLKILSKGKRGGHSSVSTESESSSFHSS

| Molecule | effect on hPPAEC monolayer permeability (hPPAEC [1]) | effect on thrombin-induced permeability of hPPAEC when added after thrombin (hPPAEC [2]; thrombin 35 nM, after 10 min CXCL12 or ubiquitin 50 nM, AMD3100 10 μM) | antagonism of the CXCL12 effect on thrombin-induced permeability (hPPAEC [2]; thrombin 35 nM, CXCL12 50 nM plus AMD3100 10 μM) | development of ARDS (P:F ratio) [3] | histological signs of lung injury, injured lung (lung injury score) [3] | potency (EC50) to recruit β-arrestin 2 to CXCR4, compared with CXCL12α (CXCR4) | potency to attenuate thrombin-induced permeability of hPPAEC (in words) (hPPAEC [2]) | concentration at which thrombin-mediated hPPAEC barrier impairment was affected (hPPAEC [2]; tested 0.05-50 nM, t=255 min) [nM] |
| --- | --- | --- | --- | --- | --- | --- | --- | --- |
| c1cc(CN2CCCNCCNCCCNCC2)ccc1CN1CCCNCCNCCCNCC1 [AMD3100] | did not affect hPPAEC permeability | did not affect thrombin-mediated hyper-permeability of hPPAEC | could be antagonized | – | – | – | – | – |
| CXCL121: constitutively monomeric CXCL12 variant with L55C and I58C substitutions (SEQ ID NO:2) | – | – | – | prevented development of ARDS | significantly reduced | no statistically significant differences | – | – |
| CXCL122: constitutively dimeric, disulfide-locked CXCL12 variant containing L36C/A65C mutations (SEQ ID NO:3) | – | – | – | prevented development of ARDS | significantly reduced | no statistically significant differences | significantly reduced potency | 50 |
| B1 | did not affect hPPAEC permeability | – | – | – | – | – | – | – |
